Assays:
Type in all cases: biochemical
C-Raf = C-Raf (Homo sapiens, UniProt P04049); test: Kinase activity assay, C-Raf; conditions: read-out: activity toward kinase C-Raf, IC50
B-Raf = B-Raf (Homo sapiens, UniProt P15056); test: Kinase activity assay, B-Raf; conditions: read-out: activity toward kinase B-Raf, IC50
Fms = Fms (Homo sapiens, UniProt P07333); test: Kinase activity assay, Fms; conditions: read-out: activity toward kinase Fms, IC50
B-Raf V600E = B-Raf V600E (Homo sapiens, UniProt P15056, V600E); test: Kinase activity assay, B-Raf V600E; conditions: read-out: activity toward kinase B-Raf V600E, IC50

Measured: IC50

Chain of C-Raf (P04049 whole entry): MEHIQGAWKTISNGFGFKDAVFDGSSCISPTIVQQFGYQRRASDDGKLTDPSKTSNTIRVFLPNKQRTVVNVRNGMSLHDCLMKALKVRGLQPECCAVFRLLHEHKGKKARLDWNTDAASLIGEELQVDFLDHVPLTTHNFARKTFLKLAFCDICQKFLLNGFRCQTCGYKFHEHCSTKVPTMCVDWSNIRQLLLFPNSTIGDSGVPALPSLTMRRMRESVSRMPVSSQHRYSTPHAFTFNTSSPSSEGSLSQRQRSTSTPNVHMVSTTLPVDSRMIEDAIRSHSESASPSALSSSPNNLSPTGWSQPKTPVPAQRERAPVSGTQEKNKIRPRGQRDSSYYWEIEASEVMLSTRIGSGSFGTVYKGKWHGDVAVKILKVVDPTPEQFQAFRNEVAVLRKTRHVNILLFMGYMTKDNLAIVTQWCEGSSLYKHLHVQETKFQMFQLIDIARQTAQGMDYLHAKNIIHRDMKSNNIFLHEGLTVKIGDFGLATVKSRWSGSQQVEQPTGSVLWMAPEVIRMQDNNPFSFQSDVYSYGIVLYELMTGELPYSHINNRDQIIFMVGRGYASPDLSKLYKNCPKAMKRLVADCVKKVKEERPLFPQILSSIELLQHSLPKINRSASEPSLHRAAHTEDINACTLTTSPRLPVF
Chain of Fms (P07333 20-972): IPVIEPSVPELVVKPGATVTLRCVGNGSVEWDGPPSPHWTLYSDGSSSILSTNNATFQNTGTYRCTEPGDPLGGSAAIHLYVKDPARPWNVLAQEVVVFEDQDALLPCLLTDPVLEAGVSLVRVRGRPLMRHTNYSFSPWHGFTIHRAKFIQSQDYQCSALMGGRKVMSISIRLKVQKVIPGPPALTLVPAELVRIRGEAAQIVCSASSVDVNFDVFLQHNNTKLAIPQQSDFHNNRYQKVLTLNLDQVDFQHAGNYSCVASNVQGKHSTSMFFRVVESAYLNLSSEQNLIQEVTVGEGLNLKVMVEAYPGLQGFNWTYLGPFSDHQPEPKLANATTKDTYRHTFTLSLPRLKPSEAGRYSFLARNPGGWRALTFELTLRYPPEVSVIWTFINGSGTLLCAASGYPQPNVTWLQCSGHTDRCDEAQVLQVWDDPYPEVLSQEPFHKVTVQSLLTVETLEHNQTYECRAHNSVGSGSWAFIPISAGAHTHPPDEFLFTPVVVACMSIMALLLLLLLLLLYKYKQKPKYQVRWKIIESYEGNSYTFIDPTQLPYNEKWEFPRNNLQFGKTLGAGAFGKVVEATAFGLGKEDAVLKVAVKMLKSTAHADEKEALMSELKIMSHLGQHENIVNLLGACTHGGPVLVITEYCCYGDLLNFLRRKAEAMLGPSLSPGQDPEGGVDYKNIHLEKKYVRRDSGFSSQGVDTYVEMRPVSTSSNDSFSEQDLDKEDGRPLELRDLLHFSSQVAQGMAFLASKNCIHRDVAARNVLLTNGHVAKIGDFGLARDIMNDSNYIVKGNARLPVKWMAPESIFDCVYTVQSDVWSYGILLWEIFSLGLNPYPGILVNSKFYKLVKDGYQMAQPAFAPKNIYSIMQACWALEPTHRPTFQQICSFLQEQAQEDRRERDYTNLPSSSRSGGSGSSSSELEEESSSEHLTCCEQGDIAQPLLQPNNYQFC
Chain of B-Raf (P15056 whole entry): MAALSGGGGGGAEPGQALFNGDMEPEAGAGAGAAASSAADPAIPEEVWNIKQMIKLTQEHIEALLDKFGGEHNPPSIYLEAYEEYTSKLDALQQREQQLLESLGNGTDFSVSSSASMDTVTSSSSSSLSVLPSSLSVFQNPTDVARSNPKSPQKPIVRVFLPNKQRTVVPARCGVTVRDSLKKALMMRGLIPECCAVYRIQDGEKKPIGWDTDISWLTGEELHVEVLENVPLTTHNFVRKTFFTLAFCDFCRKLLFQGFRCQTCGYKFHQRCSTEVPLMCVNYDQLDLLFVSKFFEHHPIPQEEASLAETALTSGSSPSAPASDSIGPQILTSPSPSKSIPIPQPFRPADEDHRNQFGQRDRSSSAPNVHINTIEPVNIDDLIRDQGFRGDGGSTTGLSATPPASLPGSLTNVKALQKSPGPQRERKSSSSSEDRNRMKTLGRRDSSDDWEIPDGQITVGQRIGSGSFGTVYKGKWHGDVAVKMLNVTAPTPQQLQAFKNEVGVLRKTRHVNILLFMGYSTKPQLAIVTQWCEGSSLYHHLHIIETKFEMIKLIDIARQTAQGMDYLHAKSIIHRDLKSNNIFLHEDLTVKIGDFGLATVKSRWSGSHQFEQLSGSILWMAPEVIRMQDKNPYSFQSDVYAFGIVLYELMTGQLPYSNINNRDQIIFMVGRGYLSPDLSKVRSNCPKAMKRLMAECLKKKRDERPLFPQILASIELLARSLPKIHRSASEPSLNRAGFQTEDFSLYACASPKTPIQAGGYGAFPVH
Chain of B-Raf V600E (P15056 whole entry V600E): as the sequence (P15056 whole entry) above, with V600E counted along it

O=C(c1c(F)ccc(NS(=O)(=O)c2cccnc2)c1F)c1c[nH]c2ncncc12 [Compound P-0066, Pyridine-3-sulfonic acid [2,4-difluoro-3-(7H-pyrrolo[2,3-d]pyrimidine-5-carbonyl)-phenyl]-amide]
≤ 10 µM: all assays above

Reference: patent publication US8153641B2, “Compounds and methods for kinase modulation, and indications therefor” (Plexxikon Inc., priority 2008, dated 2012)
